“And” between values parts separate entries of the source, which are not always exact repeats. Identical values can stand only once.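 Exposure lasted 48 hours, with cells grown in 96-well plates and compounds tested at five concentrations. GI50 marks 50% less growth. TGI marks complete inhibition of growth.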
Key:
Experiment in all cases: NCI-60 cell line screen, 48 h
CCRF-CEM leukemia = system: CCRF-CEM leukemia
HCC-2998 colon = system: HCC-2998 colon
HOP-62 NSCLC = system: HOP-62 NSCLC
HS 578T breast = system: HS 578T breast
K-562 leukemia = system: K-562 leukemia
MALME-3M melanoma = system: MALME-3M melanoma
RXF 393 renal = system: RXF 393 renal
SK-OV-3 ovarian = system: SK-OV-3 ovarian
UACC-257 melanoma = system: UACC-257 melanoma
UACC-62 melanoma = system: UACC-62 melanoma

| SMILES | GI50 (CCRF-CEM leukemia) [µM] | TGI (CCRF-CEM leukemia) [µM] | GI50 (HCC-2998 colon) [µM] | TGI (HCC-2998 colon) | GI50 (HOP-62 NSCLC) [µM] | TGI (HOP-62 NSCLC) | GI50 (HS 578T breast) [µM] | TGI (HS 578T breast) | GI50 (K-562 leukemia) [µM] | TGI (K-562 leukemia) | GI50 (MALME-3M melanoma) [µM] | TGI (MALME-3M melanoma) [µM] | GI50 (RXF 393 renal) [µM] | TGI (RXF 393 renal) | GI50 (SK-OV-3 ovarian) [µM] | TGI (SK-OV-3 ovarian) | GI50 (UACC-257 melanoma) [µM] | TGI (UACC-257 melanoma) | GI50 (UACC-62 melanoma) [µM] | TGI (UACC-62 melanoma) |
| --- | --- | --- | --- | --- | --- | --- | --- | --- | --- | --- | --- | --- | --- | --- | --- | --- | --- | --- | --- | --- |
| CCc1n(Cc2ccc3ccccc3n2)cc[n+]1Cc1ccc2ccccc2n1 | 0.388 | 15.4 | 0.227 | 14.4 µM | 4.66 | 31.5 µM | 1.88 | 26.1 µM | 0.493 | 16.1 µM | 0.128 | 0.973 | 0.982 | 13 µM | 1.39 | 15.1 µM | 0.0796 | 0.695 µM | 0.186 | 3.05 µM |
| CN1CCN(c2ccc(NC(=O)c3nc4ccc5[nH]ncc5c4c4c3CCCC4)cc2C(F)(F)F)CC1 | 1.07 | 3.33 | 1.1 | 2.99 µM | 0.918 | 1.89 µM | 5.99 | 19.4 µM | 0.968 | 2.11 µM | 0.76 | 1.64 | 0.798 | 1.55 µM | 1.48 | 5.25 µM | 0.902 | 1.88 µM | 0.973 | 1.83 µM |
| C=C1SC(=Nc2c(C)cc(C)cc2C)N(C(=O)c2sc3ccccc3c2Cl)C12CCCCC2 | 62.4 | > 100 | 44.7 | > 100 µM | > 100 | > 100 µM | > 100 | > 100 µM | 54.5 | > 100 µM | > 100 | > 100 | > 100 | > 100 µM | > 100 | > 100 µM | > 100 | > 100 µM | 78.5 | > 100 µM |
| CC1(C)CC[C@H](Nc2ncc(C(F)(F)F)c(-c3c[nH]c4c(P(C)(C)=O)c(C#N)ccc34)n2)CN1 | 0.143 | > 32 | 0.0375 | 11.6 µM | 0.0132 | 6.69 µM | 0.736 | 10.6 µM | 0.0219 | > 45.9 µM | < 0.0128 | 13 | 0.777 | 4 µM | 1.07 | 5.46 µM | < 0.01 | 6.83 µM | < 0.01 | 2.19 µM |
| O=[N+]([O-])c1ccc(S(=O)Cc2ccccc2)c([N+](=O)[O-])c1 (configuration not stated) | 0.739 | 3 | 16.6 | 30.2 µM | 11.6 | 23.8 µM | 21.4 | > 100 µM | 2.56 | 6.65 µM | 1.62 | 3.26 | 1.45 | 2.78 µM | 16.4 | 30 µM | 1.76 | 3.96 µM | 2.55 | 8.89 µM |
| COc1ccc(-c2oc3c(OC)c(OC)c(OC)c(O)c3c(=O)c2OC)cc1OC | – | > 71.3 | – | > 67 µM | – | > 100 µM | – | 17.3 µM | – | > 54.3 µM | – | 97.1 | – | 87.4 µM | – | 63.8 µM | – | > 100 µM | – | > 92 µM |
| FC(F)(F)c1cc(-c2nnc3n2N=C(N2CCCC2)CS3)cc(C(F)(F)F)c1 | > 50 | > 50 | > 50 | > 50 µM | 16.7 | > 50 µM | 17.9 | > 50 µM | > 50 | > 50 µM | > 50 | > 50 | 26.6 | > 50 µM | 14.3 | > 50 µM | > 50 | > 50 µM | > 50 | > 50 µM |
| COc1ccc(-c2cc(=O)c3c(C)cc(C)nc3[nH]2)cc1 | – | 43.2 | – | > 100 µM | – | > 100 µM | – | > 100 µM | – | > 100 µM | – | 88 | – | > 100 µM | – | > 100 µM | – | 85.3 µM | – | 46.6 µM |
| C=CCN(/C=C1/C(=O)O[C@H](COC)[C@@]2(C)C1=C(O)C(=O)C1=C2[C@H](OC(C)=O)C[C@]2(C)C(=O)CC[C@@H]12)CC=C | 0.709 | > 6.51 | 0.385 | > 7.08 µM | 2.04 | > 10 µM | 0.128 | 1.94 µM | > 8.1 | > 10 µM | 0.784 | > 10 | 0.112 | 1.56 µM | 0.331 | > 8.47 µM | 0.72 | > 9.25 µM | 0.144 | 4.45 µM |
| Cc1ccc(/C(=N\N=C(N)N)c2ccccc2)cc1 | 0.689 | > 100 | 0.241 | 0.677 µM | 0.672 | 14.3 µM | 0.349 | 3.67 µM | 0.339 | > 100 µM | 0.391 | 17.3 | 0.296 | 2.9 µM | 0.42 | 10.4 µM | 11.7 | 28.2 µM | 0.438 | 15.8 µM |
| C[C@H](NC(=O)[C@@H]1CSSC[C@@H](NC(=O)c2nc3ccccc3cc2O)C(=O)NCC(=O)N1C)c1ccccc1 | 1.89 | 10.5 | 7.48 | 17.1 µM | 11.6 | 20.7 µM | 11.2 | 34.1 µM | 0.663 | 3.13 µM | 6.08 | 14 | 1.31 | 3.06 µM | 5.59 | 21.2 µM | 7.63 | 24.6 µM | 5.6 | 13.2 µM |
| C=C(CCCCCCCCC)CC(=O)SCCNC(=O)CCNC(=O)C(O)C(C)(C)COP(=O)(O)OP(=O)(O)OCC1OC(n2cnc3c(N)ncnc32)C(O)C1OP(=O)(O)O (configuration not stated) | – | > 100 | – | > 100 µM | – | > 85.7 µM | – | > 100 µM | – | > 31.6 µM | – | > 100 | – | > 100 µM | – | > 100 µM | – | > 100 µM | – | 46.1 µM |
| CCn1c(C(=O)N(C2CC2)C2CC2)cc2c3c(ncn3C)c(Nc3cc(C)n(C)n3)nc21 | > 100 | > 100 | > 100 | > 100 µM | > 100 | > 100 µM | 3.63 | > 100 µM | > 100 | > 100 µM | > 100 | > 100 | 2.99 | 23.9 µM | > 100 | > 100 µM | > 100 | > 100 µM | > 100 | > 100 µM |
| CCCC(=O)Nc1cc(C(=O)N2C[C@@H]3C[C@]34C2=CC(=O)c2[nH]cc(C)c24)n(COC)c1 | 0.495 | – | 2.88 | 9.71 µM and 10.2 µM | 2.5 | 50 µM and 8.13 µM | 4.31 | 38.2 µM and 27.1 µM | 2.04 | 50 µM and > 100 µM | – | 10.9 | – | 9.21 µM and 3.33 µM | 4.32 | 43.8 µM and 17.9 µM | 3.03 | 32.4 µM and 6.62 µM | 2.84 | 13.5 µM and 8.75 µM |
| COc1ccc(N2Cc3cnc(Nc4ccccc4)nc3N([C@@H]3CC[C@@H](O)C3)C2=O)cc1 | 5.98 | > 25 | 18.8 | > 25 µM | 8.87 | > 25 µM | 0.671 | 6.2 µM | 5.67 | > 25 µM | 6.89 | > 25 | 0.399 | 3.18 µM | 3.69 | > 25 µM | 7.36 | > 25 µM | 2.74 | > 25 µM |
| CCCc1c(CC)c(=N)c2ccccc2n1C | > 100 | > 100 | > 100 | > 100 µM | > 100 | > 100 µM | > 100 | > 100 µM | 51.1 | > 100 µM | 42.6 | > 100 | > 100 | > 100 µM | > 100 | > 100 µM | 47.3 | > 100 µM | 66.3 | > 100 µM |
| CCCCS(=O)CCC(N)C(=O)O (configuration not stated) | – | > 100 | – | > 100 µM | – | > 100 µM | – | > 100 µM | – | > 100 µM | – | > 100 | – | > 100 µM | – | > 100 µM | – | > 100 µM | – | > 100 µM |
| CCCCCCCCCCCCCCN | – | > 100 | – | > 100 µM | – | > 100 µM | – | > 100 µM | – | > 100 µM | – | > 100 | – | > 100 µM | – | > 100 µM | – | > 100 µM | – | > 100 µM |
| CCOC(=O)C1(Br)C(c2ccccc2)NC(=O)NC1(C)Br (configuration not stated) | – | 99.8 | – | > 100 µM | – | > 100 µM | 37.4 | > 100 µM | – | > 94.5 µM | – | > 100 | – | > 100 µM | – | > 100 µM | – | > 100 µM | – | > 100 µM |
| COc1ccc(-c2nc3sc(-c4ccc(Cl)cc4)cn3n2)cc1 | > 50 | > 50 | > 50 | > 50 µM | 2.36 | > 50 µM | 2.31 | > 50 µM | 29.4 | > 50 µM | 2.71 | > 50 | 6 | 39.7 µM | 11.7 | > 50 µM | > 50 | > 50 µM | 8.24 | > 50 µM |
| CCCCCCCNc1nc(C(=O)OCC)ncc1-c1ccc(C(F)(F)F)cc1 | 29.5 | > 100 | 41.5 | > 100 µM | 55.7 | > 100 µM | 46.6 | > 100 µM | 36.8 | > 100 µM | 41.8 | > 100 | 19 | 71.1 µM | 39.1 | > 100 µM | 26.6 | 75.6 µM | 25.2 | > 100 µM |
| O=C1C(c2c[nH]c3ccccc23)=C(c2c[nH]c3ccccc23)C(=O)N1O | > 25 | > 25 | > 25 | > 25 µM | > 25 | > 25 µM | > 19.7 | > 25 µM | > 25 | > 25 µM | > 25 | > 25 | > 22.7 | > 25 µM | > 25 | > 25 µM | > 25 | > 25 µM | 24.6 | > 25 µM |
| COc1cc2c(c(OC)c1OC)-c1ccc(N)c(=O)cc1[C@@H](NC(C)=O)CC2 | < 0.0147 | > 100 | 0.0279 | – | 0.0426 | > 100 µM | 0.0127 | > 100 µM | < 0.014 | > 100 µM | 48.8 | > 100 | 0.0303 | > 100 µM | 0.0388 | > 100 µM | > 100 | > 100 µM | 0.0379 | > 100 µM |
